Laboratory results reported in PubChem BioAssay AID2060487 (Molecular Pharmacology Branch, DTP, NCI, 2025).

Tested on: 997537-175-T-J1-PDC complex spheroid viability
Assay: Anticancer human tumor 997537-175-T-J1-PDC patient-derived colon adenocarcinoma cell line growth inhibition [GQUAD]
Details: for IC50: curve of first compound; for viability, T/C: stronger effect = lower value
From the text: DNA G-quadruplex Stabilizer Agents in Combinations in Complex Spheroids
A high-throughput screen of multi-cell type tumor spheroids was designed to identify active combinations of DNA G-quadruplex stabilizer agents and targeted small molecules. Complex spheroids include a stromal component modeled by human endothelial cells (HUVEC) and fibroblasts modeled by human mesenchymal stem cells (MSCs). The concentration ranges selected for each drug and investigational agent were based upon clinically achievable concentrations if the clinical Cmax of the agent was known.
Compounds. The drugs and investigational agents: pidnarulex (CX-5461; NSC782164), APTO-253 (NSC789042), BRACO-19 (NSC847499), peposertib (NSC802822), ceralasertib (NSC780249), elimusertib (NSC800525), camonsertib (NSC841442), AZD-1390 (NSC803789), olaparib (NSC753686), talazoparib (NSC767125), ART-558 (NSC835418), sotorasib (NSC818433), MRTX-1133 (NSC836407), SN-38 (NSC673596), topotecan (NSC609699), etoposide (NSC141540), doxorubicin (NSC123127), gemcitabine (NSC613327), 5-fluorouracil (NSC19893), paclitaxel (NSC125973), vemurafenib (NSC761431), panobinostat (NSC761190), R-306465 (JNJ-16241199; NSC773264), adavosertib (NSC754352), TP-3654 (NSC805149), carboplatin (NSC241240), KSQ-4279 (NSC840948), and staurosporine (NSC755774) were obtained from the National Cancer Institute (NCI) Developmental Therapeutics Program Chemical Repository (34). The FDA-approved anticancer drug set is available from the NCI Developmental Therapeutics Program. […] The stock solutions were prepared in dimethyl sulfoxide (DMSO, Sigma-Aldrich, St. Louis, MO, cat. D2650) at 800-fold the tested concentration and stored at -70 degrees C prior to their use. All drugs and investigational agents were tested over a range starting from a high concentration at or near the clinical Cmax and decreasing in half-log increments. If the clinical Cmax for an agent had not been determined, the highest concentration tested was 10 microM.
2.3 Cell Culture. All cells were maintained in an incubator at 37 degrees C and 5% CO2 with 95% humidity. The PDC lines were cultured according to standard operating procedures established by the NCI PDMR. All PDCs were thawed and cultured in Matrigel-coated flasks prepared with a working solution of 1X Ham's F-12 nutrient mix, without supplementation (Invitrogen, cat. 11765054), 100 U/mL penicillin-streptomycin (Invitrogen, cat. 15140122), and 2.5% Matrigel (Corning Inc., cat. 354248) for the first three passages. The 857933-349-R-J2-PDC line was cultured in 6C/Colon 1B media, which includes advanced DMEM/F-12 (Thermo Fisher Scientific, cat. 12634028), 10 mM HEPES (Thermo Fisher Scientific, cat. 15630080), 1X GlutaMAX supplement (Thermo Fisher Scientific, cat. 35050061), 0.1 mg/mL primocin (InvivoGen, cat. ant-pm-2), 10% defined fetal bovine serum, heat inactivated (HyClone Laboratories Inc., cat. SH30070.03HI), 50% L-WRN conditioned media (ATCC, cat. CRL-3276), 1.25 mM N-Acetyl-L-cysteine (Sigma-Aldrich, cat. A9165), 10 mM nicotinamide (Sigma-Aldrich, cat. N0636), 1X B-27 supplement (Thermo Fisher Scientific, cat. 17504044), 1X N-2 supplement (Thermo Fisher Scientific, cat. 17502048), 10 microM Y-27632 dihydrochloride (Tocris Bioscience, cat. 1254), and 50 ng/mL human EGF recombinant protein (Thermo Fisher Scientific, cat. PHG0311). The 485176-168-R4-J1-PDC line was cultured in Panc media, which includes all 6C/Colon 1B media components plus 100 ng/mL human FGF-10 (Thermo Fisher Scientific, cat. 100-26), 500 nM SB-431542 (Selleckchem, cat. S1067), and gastrin (Tocris, cat. 3006).
[…]

[1] = second compound 0.0316 µM, first compound 0.0316 µM
[2] = second compound 0.0316 µM, first compound 0.316 µM
[3] = second compound 0.1 µM, first compound 0.0316 µM
[4] = second compound 0.1 µM, first compound 0.316 µM
[5] = second compound 0.316 µM, first compound 0.0316 µM
[6] = second compound 0.316 µM, first compound 0.316 µM
[7] = second compound 1 µM, first compound 0.0316 µM
[8] = second compound 1 µM, first compound 0.316 µM
[9] = second compound 3.16 µM, first compound 0.0316 µM
[10] = second compound 3.16 µM, first compound 0.316 µM
[11] = second compound 10 µM, first compound 0.0316 µM
[12] = second compound 10 µM, first compound 0.316 µM
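Also: spheroids exposed to the agents for 7 days.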
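For viability, T/C in this document: 100% = DMSO vehicle control viability.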

Compound: Cc1[nH]c2ccccc2c1CCNCc1ccc(/C=C/C(=O)NO)cc1 + Cc1[nH]c2ccc(F)cc2c1-c1nc2c3cccnc3c3ncccc3c2[nH]1
- IC50 (second compound 0.0316 µM): > 316 nM
- IC50 (second compound 0.1 µM): > 316 nM
- IC50 (second compound 0.316 µM): > 316 nM
- IC50 (second compound 1 µM): > 316 nM
- IC50 (second compound 3.16 µM): > 316 nM
- IC50 (second compound 10 µM): > 316 nM
- viability, T/C (second compound 0.0316 µM, first compound 0.000999 µM): 100%
- viability, T/C (second compound 0.0316 µM, first compound 0.00316 µM): 103%
- viability, T/C (second compound 0.0316 µM, first compound 0.00999 µM): 100%
- viability, T/C [1]: 106%
- viability, T/C (second compound 0.0316 µM, first compound 0.0999 µM): 88.8%
- viability, T/C [2]: 93.2%
- viability, T/C (second compound 0.1 µM, first compound 0.000999 µM): 89.3%
- viability, T/C (second compound 0.1 µM, first compound 0.00316 µM): 108%
- viability, T/C (second compound 0.1 µM, first compound 0.00999 µM): 92.8%
- viability, T/C [3]: 104%
- viability, T/C (second compound 0.1 µM, first compound 0.0999 µM): 93.4%
- viability, T/C [4]: 95.5%
- viability, T/C (second compound 0.316 µM, first compound 0.000999 µM): 92.1%
- viability, T/C (second compound 0.316 µM, first compound 0.00316 µM): 111%
- viability, T/C (second compound 0.316 µM, first compound 0.00999 µM): 92.4%
- viability, T/C [5]: 91%
- viability, T/C (second compound 0.316 µM, first compound 0.0999 µM): 105%
- viability, T/C [6]: 97.1%
- viability, T/C (second compound 1 µM, first compound 0.000999 µM): 98.4%
- viability, T/C (second compound 1 µM, first compound 0.00316 µM): 95.1%
- viability, T/C (second compound 1 µM, first compound 0.00999 µM): 101%
- viability, T/C [7]: 90.6%
- viability, T/C (second compound 1 µM, first compound 0.0999 µM): 90.5%
- viability, T/C [8]: 84.8%
- viability, T/C (second compound 3.16 µM, first compound 0.000999 µM): 93.2%
- viability, T/C (second compound 3.16 µM, first compound 0.00316 µM): 84%
- viability, T/C (second compound 3.16 µM, first compound 0.00999 µM): 82.1%
- viability, T/C [9]: 96.3%
- viability, T/C (second compound 3.16 µM, first compound 0.0999 µM): 77.6%
- viability, T/C [10]: 80.7%
- viability, T/C (second compound 10 µM, first compound 0.000999 µM): 83.2%
- viability, T/C (second compound 10 µM, first compound 0.00316 µM): 88.7%
- viability, T/C (second compound 10 µM, first compound 0.00999 µM): 73.2%
- viability, T/C [11]: 78.6%
- viability, T/C (second compound 10 µM, first compound 0.0999 µM): 84.6%
- viability, T/C [12]: 69.5%

Compound: O=C(NO)c1cnc(N2CCN(S(=O)(=O)c3ccc4ccccc4c3)CC2)nc1 + Cc1[nH]c2ccc(F)cc2c1-c1nc2c3cccnc3c3ncccc3c2[nH]1
- IC50 (second compound 0.0316 µM): 89.2 nM
- IC50 (second compound 0.1 µM): 134 nM
- IC50 (second compound 0.316 µM): 91.5 nM
- IC50 (second compound 1 µM): 87.8 nM
- IC50 (second compound 3.16 µM): 43 nM
- IC50 (second compound 10 µM): < 31.6 nM
- viability, T/C [1]: 93.7%
- viability, T/C (second compound 0.0316 µM, first compound 0.1 µM): 45.1%
- viability, T/C [2]: 19.4%
- viability, T/C (second compound 0.0316 µM, first compound 1 µM): 35.4%
- viability, T/C (second compound 0.0316 µM, first compound 3.16 µM): 39.2%
- viability, T/C (second compound 0.0316 µM, first compound 10 µM): 21.7%
- viability, T/C [3]: 73.6%
- viability, T/C (second compound 0.1 µM, first compound 0.1 µM): 56.2%
- viability, T/C [4]: 31.2%
- viability, T/C (second compound 0.1 µM, first compound 1 µM): 32.7%
- viability, T/C (second compound 0.1 µM, first compound 3.16 µM): 20.9%
- viability, T/C (second compound 0.1 µM, first compound 10 µM): 42.4%
- viability, T/C [5]: 78.8%
- viability, T/C (second compound 0.316 µM, first compound 0.1 µM): 43.4%
- viability, T/C [6]: 52.3%
- viability, T/C (second compound 0.316 µM, first compound 1 µM): 31.8%
- viability, T/C (second compound 0.316 µM, first compound 3.16 µM): 42.2%
- viability, T/C (second compound 0.316 µM, first compound 10 µM): 34.8%
- viability, T/C [7]: 74.4%
- viability, T/C (second compound 1 µM, first compound 0.1 µM): 44.5%
- viability, T/C [8]: 37.6%
- viability, T/C (second compound 1 µM, first compound 1 µM): 29.4%
- viability, T/C (second compound 1 µM, first compound 3.16 µM): 23.6%
- viability, T/C (second compound 1 µM, first compound 10 µM): 26.2%
- viability, T/C [9]: 55.9%
- viability, T/C (second compound 3.16 µM, first compound 0.1 µM): 33.5%
- viability, T/C [10]: 30.5%
- viability, T/C (second compound 3.16 µM, first compound 1 µM): 24.8%
- viability, T/C (second compound 3.16 µM, first compound 3.16 µM): 25.6%
- viability, T/C (second compound 3.16 µM, first compound 10 µM): 19.4%
- viability, T/C [11]: 45.1%
- viability, T/C (second compound 10 µM, first compound 0.1 µM): 16.1%
- viability, T/C [12]: 10.4%
- viability, T/C (second compound 10 µM, first compound 1 µM): 19.8%
- viability, T/C (second compound 10 µM, first compound 3.16 µM): 16.6%
- viability, T/C (second compound 10 µM, first compound 10 µM): 18%
